Measured values reported in US20230158104A1, “COMPOUNDS FOR USE IN AUTOIMMUNE CONDITIONS” (priority 2020, published 2023).
“And” between values parts separate entries of the source, which are not always exact repeats. Equal entries are not always repeated. “Also recorded” adds a separate entry of the source. Where two headings read alike, the source gives them in different places. Marks after values point to notes of the source that are not given here.

Columns and labels:
NF-κB = NF-κB transactivation luciferase assay; type: cell-based, human; conditions: 100 nM plitidepsin, 6 hours, with poly I:C, LPS-B5 or Resiquimod; THP-1 NF-κB-Luc cells
Description: Luminescence was measured in a Perkin-Elmer EnVision reader.

THP-1 cells = experiment: MTT cell proliferation assay (cytotoxicity control); type: cell-based, human; conditions: activators combined with 100 nM plitidepsin, 6 hours
[1] = system: cytokine secretion induced by Resiquimod in THP-1 cells; experiment: Plitidepsin pre-treatment of THP-1 NFκB luc cells before Resiquimod stimulus; type: cell-based, human; conditions: 1, 10 or 50 nM added 8 hours before Resiquimod 2.5 or 5 μg/mL; measured at 24 hours
Description: At 0 time THP-1 cells were treated with 1 nM, 10 nM or 50 nM APL or DMSO (0.2%) followed by stimulus with Resiquimod at 2.5 or 5 μg/mL at 8 hours. At 24 hours cytokines or cell viability was measured.
In a further in vitro experiment, the effect of plitidepsin (APL) pre-treatment on THP-1 cells was studied. Using a THP-1 NFκB luc line, 1, 10 or 50 nM of APL or DMSO (0.2%) was added 8 hours before stimulus with Resiquimod (RQ) at 2.5 or 5 μg/mL. RQ is a TLR7/8 agonist and mimics ssRNA. At 24 hours the level of cytokines or cell viability was measured.

[2] = Pharmacokinetics in patients; type: in vivo, Human
COVID-19 = type: in vivo, human
Description: All patients received the following prophylactic medications 20-30 minutes before the infusion of plitidepsin: • Diphenhydramine hydrochloride 25 mg iv or equivalent. • Ranitidine 50 mg iv or equivalent. • Dexamethasone 6.6 mg intravenous. • Ondansetron 8 mg i.v. in slow infusion of 15 minutes or equivalent.
Patients included in the study will receive treatment for 3 days.

[3] = Stability of plitidepsin drug product and reconstituted solution; type: physicochemical
Description: Plitidepsin will be labelled with the study protocol code, the batch number, the content, the expiry date, the storage conditions, the name of the investigator and the sponsor. The study drug will be labelled in accordance with Annex 13 of the European Good Manufacturing Practices. Plitidepsin should be stored between 2° C. and 8° C. and the vials should be kept in the outer carton to protect them from light. The drug in these conditions is stable for 60 months.
After reconstitution of the 2 mg plitidepsin vial with 4 ml of the solution for reconstitution of macrogolglycerol ricinoleate/ethanol/water for injection, the reconstituted solution should be diluted and used immediately after preparation. If not used immediately, storage times and conditions until use are the responsibility of the user. […] If storage is required before administration, solutions should be stored refrigerated and protected from light and should be used within 24 hours after reconstitution.

alveolar macrophages = conditions: mice, plitidepsin 1 mg/kg i.v. with LPS 20 μg/kg i.p., three hours
[4] = Pharmacokinetics, plasma and lung, rat; conditions: rats, single intravenous dose 0.2 mg/kg
[5] = Pharmacokinetics, plasma and lung, mouse
[6] = Pharmacokinetics, plasma and lung, hamster; conditions: hamsters, single intravenous dose 0.2 mg/kg
[7] = system: resiquimod (RQ)-trigged cytokine secretion in BALF; experiment: Resiquimod intranasal inflammation model, TNFα in BALF; conditions: mice 1 mg/kg i.v. 1 hour before Resiquimod 50 μg/mouse intranasal; 1 or 3 hours after RQ
Description: We further checked whether plitidepsin inhibits resiquimod (RQ)-trigged cytokine secretion in BALF. Mice were injected i.v. with plitidepsin (1 mg/kg) or vehicle 1 hour before a 50 μg/mouse intranasal inoculation with resiquimod. At 1 or 3 hours after intranasal administration of RQ bronchoalveolar lavage fluid (BALF) was collected. Cells were plated and secreted cytokines were measured.
In another inflammation model, mice were randomized into groups of two animals to receive the treatments. Mice were challenged with plitidepsin (1 mg/kg) intra venous (i.v.) followed by Resiquimod (50 μg/mouse, intranasal) 1 hour latter. The control group received plitidepsin vehicle (Cremophor/Ethanol/Water) diluted with saline. One and 3 hours later, animals were euthanized, bronchoalveolar lavage collected (a total of 1.2 ml, PBS) and then, TNFα quantified by ELISA kits.

[8] = system: TLR-trigged cytokine secretion in THP-1 cells; experiment: ELISA assays for secreted cytokines, TLR ligands combined with plitidepsin; conditions: 100 nM plitidepsin with TLR ligands, 6 hours, THP-1, ELISA
Description: To investigate whether plitidepsin inhibits the TLR-trigged cytokine secretion, we treated THP-1 cells with 100 ng/mL TNFα (an activator of NF-κB), 500 μg/mL poly I:C (TLR3 ligand), 10 μg/mL LPS-B5 (TLR4 ligand) or 10 μg/mL Resiquimod (TLR-7/8 ligand). The compounds were used either alone (grey bars) or combined with 100 nM of plitidepsin (red bars) for 6 hours. We compared the variations in cytokine secretion in the cell culture supernatants between the different treatments by ELISA assays.
THP1-NFκB-LUC cell cultures were treated as described above, and the culture medium was sampled at 6 hours post-treatment to assay for secreted cytokines by ELISA. Media samples were stored at 4-C. IL-8, IL-1β, IL-6 and TNFα protein secretion into culture medium was quantitated using highly specific and sensitive ELISA kits. Human IL-lb, human IL-6, human IL-8 and human TNF OptEIA™ ELISA kits were obtained from BD Biosciences and performed as described by the manufacturer. The data presented are the average of three independent experiments performed in triplicate.

[9] = system: LPS-trigged cytokine secretion in alveolar macrophages; experiment: Ex vivo LPS-B5-triggered cytokine secretion in bronchoalveolar lavage cells of treated mice; conditions: mice 1 mg/kg i.v.
Description: To that end mice were injected i.v. with plitidepsin (1 mg/kg) or vehicle and 12 hours after administration bronchoalveolar lavage fluid (BAL) was collected. Cells were plated and treated ex-vivo or not with 15 μg/mL of LPS-B5 for 3 or 6 hours and secreted cytokines were measured.
Mice were randomized into groups of five animals to receive the treatments. Mice were injected intra venous (i.v.) with plitidepsin (1 mg/kg) and 12 hours after administration were euthanized. Control group received plitidepsin vehicle diluted with saline (Cremophor/Ethanol/Water). Bronchoalveolar lavage fluid (BAL) of each group was collected and centrifugated to obtain bronchoalveolar lavage cells. Cells underwent red blood cell lysis (Roche) and were plated and treated ex-vivo or not with 15 μg/mL of LPS-B5 for 3 or 6 hours. Secreted cytokines were measured using highly specific and sensitive ELISA kits. Mouse IL-6, mouse IL-10 and mouse TNF DuoSet ELISA kits were obtained from R&D Systems and performed as described by the manufacturer.

[10] = Human (M/F), 0.135 mg/kg (Recommended Dose 5 mg/m2, 3-h intravenous infusion)
[11] = Human, 0.02 mg/kg (1.5 mg/patient), following 3 daily doses, estimated from population PK model
[12] = individual patients, PLD 2.0 mg×3
[13] = Mouse (F) C57BL6/J, 1.0 mg/kg single intravenous bolus, plasma
[14] = BAL cells 12 hours after, ex vivo 15 μg/mL LPS-B5 for 3 or 6 hours, listed as plitidepsin, 1 mg/kg

(−)-(3S,6R,7S,10R,11S,15S,17S,20S,25aS)-11-hydroxy-3-(4-methoxybenzyl)-2,6,17-trimethyl-15-(1-methylethyl)-7-[[(2R)-4-methyl-2-[methyl[[(2S)-1-(2-oxopropanoyl)pyrrolidin-2-yl]carbonyl]amino]pentanoyl]amino]-10-[(1S)-1-methylpropyl]-20-(2-methylpropyl)tetradecahydro-15H-pyrrolo[2,1-f]-[1,15,4,7,10,20]dioxatetrazacyclotricosine-1,4,8,13,16,18,21(17H)-heptone [PLD]
production of luciferase (NF-κB transactivation) (NF-κB): clearly inhibited
Survival (MTT assay), cytotoxic effect (THP-1 cells): No cytotoxic effect
secretion of IL1β [1]: inhibited
secretion of IL6 [1]: inhibited
secretion of IL8 [1]: inhibited
secretion of TNF-α [1]: inhibited
AUC0-∞ [2, 10]: 256.0 ng·h/mL
Cl [2, 10]: 12 to 15 mL/min/kg
Cmax [2, 10]: 29.1 ng/mL
Vdss [2, 10]: 29-33 L7 kg
t1/2 [2, 10]: 20 to 80 h
AUC0-∞ [2, 11]: 174.0^d ng · h/mL
Cmax [2, 11]: 8.5^d ng/mL
tolerability (COVID-19; 45 patients, 1.5, 2.0 and 2.5 mg daily for 3 days, all 3 dose cohorts): well tolerated
Hospital discharge by day (COVID-19; [12]): ≤ 10 days and ≤ 8 days
PCR COVID 19 test converted to negative by day (COVID-19; [12]): ≤ 15 day and ≤ 7 day and still positive at day 7
clinical outcome (COVID-19; [12]): major clinical improvement
patients discharged by Day 15 (COVID-19; mild disease, across dose cohorts (9/9)): 100%
patients discharged by Day 15 (COVID-19; moderate disease, across dose cohorts (23/28)): 82%
Bilateral pneumonia resolved by day (COVID-19; patient 5, PLD 1.5 mg×3): ≤ 6 days
C-reactive protein (COVID-19; patient 5, PLD 1.5 mg×3): acute fall is seen by day 2
C-reactive protein (COVID-19; patients 7 and 9, PLD 2.0 mg×3): acute fall is seen by day 3
patients discharged by Day 15 (COVID-19; severe disease, across dose cohorts (4/7)): 57%
physical, chemical and microbiological stability of reconstituted concentrated solution ([3]; original vial under indoor light at room temperature): 6 hours
physical, chemical and microbiological stability of reconstituted concentrated solution ([3]; refrigerated conditions (5° C.±3° C.)): 24 hours
stability of the drug (2 mg vial, powder) ([3]; stored between 2° C. and 8° C., in outer carton protected from light): 60 months
cytotoxic effects (CD45+ alive cells in bronchoalveolar lavage) (alveolar macrophages): without cytotoxic effects
percentage of macrophages present in bronchoalveolar lavage (alveolar macrophages): decrease
lung-to-plasma ratio (lungAUC0-∞/plasmaAUC0-∞) [4]: 460
AUC0-∞ [5, 13]: 225.3 ng·h/mL
Cl [5, 13]: 73.3 mL/min/kg
Cmax [5, 13]: 50.7 ng/mL
Vdss [5, 13]: 101.8 L7 kg
t1/2 [5, 13]: 18.2 h
Maximum Tolerated Dose ([5]; Mouse (F) C57BL6/J, single intravenous bolus): 1.0^a mg/kg
lung-to-plasma ratio (lungAUC0-∞/plasmaAUC0-∞) ([5]; mice, single intravenous dose 1.0 mg/kg): 133
lung-to-plasma ratio (lungAUC0-∞/plasmaAUC0-∞) [6]: 909
production of TNFα in BALF [7]: prevented the increased production
production of IL-1 [8]: clearly inhibited
production of IL-6 [8]: clearly inhibited
production of IL-8 [8]: clearly inhibited
production of TNFα [8]: clearly inhibited
secretion of IL-10 induced by LPS-B5 ([9]; BAL cells 12 hours after, ex vivo 15 μg/mL LPS-B5 for 3 or 6 hours): significantly reduce
secretion of IL-6 induced by LPS-B5 [9, 14]: clearly inhibited; also recorded: significantly reduce
secretion of TNFα induced by LPS-B5 [9, 14]: clearly inhibited; also recorded: significantly reduce
cell viability of CD45+ cells from bronco-alveolar lavages ([9]; LPS-B5 ex vivo): unrelated to cell viability
